The term CC50 denotes the concentration that lowers cell viability or growth by half. A word on the IC50: it is the concentration that gives 50% inhibition.

The record followed here is ChEMBL document CHEMBL1136913, “Stereoselective synthesis and biological evaluations of novel 3'-deoxy-4'-azaribonucleosides as inhibitors of hepatitis C virus RNA replication” (J Med Chem, 2009).

The nature of series [1]: Cytotoxicity against human HBI10A cells after 20 hrs by MTS assay. It is filed as cell-based.
For the next series, the system named is Hepatitis C virus. Briefly: Antiviral activity against HCV infected in human HBI10A cells assessed as inhibition of viral-NS3 expression by ELISA. It is filed as functional, organism-based, Hepacivirus hominis. For orientation: In an ELISA, binding on a coated surface is turned into a signal by an enzyme label.
Series [2] can be described thus: Selectivity index, ratio of CC50 for human HBI10A cells to IC50 for HCV. It is filed as functional.

Compound `CC(C)(C)OC(=O)N1[C@H](CO)C[C@@H](O)[C@@H]1n1ccc(=O)[nH]c1=O` registered a half-maximal cytotoxic concentration (CC50) at 20 h in series [1] greater than 1000 µM. In the series on Hepatitis C virus, the IC50 is 40.6 µM.

Take `CC(C)(C)OC(=O)N1[C@H](CO)C[C@@H](O)[C@@H]1n1ccc(N)nc1=O`: in series [1], the CC50 at 20 h was greater than 1000 µM. For the same compound, the half-maximal inhibitory concentration (IC50) in the series with Hepatitis C virus was determined as 96 µM.

The compound `Cc1cn([C@H]2[C@H](O)C[C@@H](CO)N2C(=O)OC(C)(C)C)c(=O)[nH]c1=O` came in with a CC50 at 20 h in series [1] greater than 1000 µM. Also, the IC50 in the series on Hepatitis C virus came out at 0.018 µM.

Turning to `CCOC(=O)N1[C@H](CO)C[C@@H](O)[C@@H]1n1cc(F)c(=O)[nH]c1=O`, in series [2], the “Ratio CC50/IC50” value is “>=208”. This compound also gave a CC50 at 20 h in series [1] greater than 1000 µM. Besides, the IC50 with Hepatitis C virus amounted to 4.8 µM.

For the compound `CC(C)(C)OC(=O)N1[C@H](CO)C[C@@H](O)[C@@H]1n1cc(F)c(=O)[nH]c1=O`, the CC50 at 20 h in series [1] was 623 µM. The IC50 in the series on Hepatitis C virus stood at 0.00035 µM.

`CCOC(=O)N1[C@H](CO)C[C@@H](O)[C@H]1n1cc(F)c(=O)[nH]c1=O` gave a CC50 at 20 h in series [1] of 200 µM. For the same compound, the IC50 in the series with Hepatitis C virus was greater than 1000 µM.
